Assay results as given in US20250302798A1, “STING INHIBITORS AND USE THEREOF” (CARMEL HAIFA UNIVERSITY ECONOMIC CORPORATION LTD., priority 2022, published 2025).
Entries after “also recorded” stand apart in the source; their conditions may differ.

Columns and labels:
liver fibrosis = assay: CCl4 mouse liver fibrosis model, liver Western blot; assay type: in vivo, C57BL/6 mice; details: CCl4 mice, 50 μM compound
Method: FIGS. 7A-7E include an image and graphs showing that compound 2.1 facilitates anti-fibrotic responses during the resolution of liver fibrosis. Mice were injected I.P. with the fibrosis-inducing agent CCl4 twice a week. After 28 days the mice were injected with vehicle (DMSO 0.4%), or 50 μM compound 2.1 ([…]). After 2 additional days, livers were collected and analyzed by western blot (7A) for their expression of collagen 1 and the M2 marker arginase 1, as well as β-actin (loading control). Alternatively, livers were analyzed for their mRNA expression of the IFN-responsive genes Ifitml (7B) and Ifitm3 (7C), or the anti-fibrotic protein Rgs2 (7D). Liver interstitial fluids were evaluated for the anti-fibrotic cytokine IL-10 (7E) levels. Results are representative from 4 (A) or mean±SEM of 8 mice (7B-7E). One-way ANOVA, and Tukey HSD test ** P≤0.01, **** P≤0.0001.
FIGS. 9A-9E include an image of Western blot analysis and vertical bar graphs showing that compound 2.1 reduces production of fibrosis-related factors. (9A) Western blot analysis showing that treatment with compound 2.1 (c2.1) in a liver fibrosis model results in: reduced production of Collagen 1 (Col-1), and of Arginase 1, and increased production of IFN-β. (9B-9E) Vertical bar graphs showing densitometric analysis of (9A) for Col-1 (9B), Arginase-1 (9C), IFN-β (9D), and alpha smooth muscle actin (αSMA; 9E). (9B-9E) results are mean±SEM. One-way ANOVA, and Tukey HSD test * P≤0.05, ** P≤0.01.
Male C57BL/6 mice were randomly assigned to experimental groups at approximately eight weeks old. Mice were injected I.P. with CCl4 (1 ml/kg) three times a week for six weeks with 0.2 ml of a 10 percent CCl4 in corn oil. Forty-eight hours before sacrifice, the vehicle group was injected I.P. with CCL4, while the treatment group was injected with CCl4 and 50 μM of compound 2.1. Then the liver was collected in a RIPA buffer for Western blot analysis.
Protein extracts of liver tissue were separated by sodium dodecyl sulfate polyacrylamide gel electrophoresis (SDS-PAGE), transferred to PVDF membranes (Bio-Rad Laboratories, Inc.), blocked with 5% skimmed milk powder, and immunoblotted with antibodies targeting: IFN-β, arginase 1, collagen 1, or β-actin. Then, the membranes were washed, incubated with the appropriate horseradish peroxidase (HRP)-conjugated secondary antibody, and developed using WesternBright™ ECL (Advansta Inc). Band density was quantified with FIJI ImageJ software.

STING = target: T1, STING (Homo sapiens, UniProt Q86WV6); assay: Cytokine expression and STING signaling in PMA-differentiated U937 macrophages; assay type: cell-based; details: 50 nM, compared with c-GAMP 1 μg/ml
T1 construct: endogenous in cells; host or cells: U937 cells differentiated with PMA
T1 sequence (Q86WV6 whole entry H232R): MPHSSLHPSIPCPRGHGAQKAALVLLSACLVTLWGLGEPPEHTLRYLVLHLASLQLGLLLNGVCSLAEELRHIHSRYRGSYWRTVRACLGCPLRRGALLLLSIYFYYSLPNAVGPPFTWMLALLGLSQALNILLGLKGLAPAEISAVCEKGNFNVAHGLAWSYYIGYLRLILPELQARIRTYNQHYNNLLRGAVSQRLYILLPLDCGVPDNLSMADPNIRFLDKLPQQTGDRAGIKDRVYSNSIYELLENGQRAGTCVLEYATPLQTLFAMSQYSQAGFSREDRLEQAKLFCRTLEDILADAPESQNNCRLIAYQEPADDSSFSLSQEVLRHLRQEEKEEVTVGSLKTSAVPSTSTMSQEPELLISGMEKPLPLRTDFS
Method: FIGS. 8A-8G include graphs and an image showing that compound 2.1 activates cytokine expression and STING signaling in human macrophages in a similar fashion to cGAMP. Human monocytes of the U937 cell line were treated with phorbol 12-myristate 13-acetate (PMA; 50 ng/ml) for 48 hours. Then, differentiated macrophages (4×10^6 cells) were treated with c-di-GMP (10 μg/ml), c-GAMP (1 μg/ml), compound 2.1 (50 nM) or vehicle for 8 (8A-8F) or 2 (8G) hours. Cells (8A-8D, and 8G) or culture supernatants (8E-8F), were collected and analyzed by RT-PCR, ELISA, and immunoblotting for: TNFα (8A), IL-6 (8B), IL-10 (8C), IFN-β (8D), IL-10 (8E), and TNFα (8F), or STING-IFN-β-RGS2 pathway proteins and actin as a loading control (8G). Results are representative mean±SEM from 3 experiments. One-way ANOVA, and Tukey HSD test ** P≤0.01, P<0.001, **** P≤0.0001.

c1ccc(CSc2nnc(CCCCCCCCc3nnc(SCc4ccccc4)o3)o2)cc1 [Compound 2.1, 2-(benzylsulfanyl)-5-{8-[5-(benzylsulfanyl)-1,3,4-oxadiazol-2-yl]octyl}-1,3,4-oxadiazole]
Production of fibrosis-related factors (liver fibrosis): reduces
Production of Arginase 1 in liver (liver fibrosis; Western blot): reduction; also recorded: reduced
Production of Collagen 1 in liver (liver fibrosis; Western blot): reduction; also recorded: reduced
Production of IFN-β in liver (liver fibrosis; Western blot): elevated production; also recorded: increased
Anti-fibrotic responses during the resolution of liver fibrosis (liver fibrosis; livers after 2 days): facilitates
STING signaling (STING-IFN-β-RGS2 pathway proteins) (STING; 2 hours): activates
Cytokine expression (TNFα, IL-6, IL-10, IFN-β) (STING; 8 hours): activates
